One may read the IC50 as the point on the concentration scale where inhibition reaches its midpoint.

The values below come from paper PMC12777753 (Emerging Microbes & Infections, 2025).

Experiment [1] concerns A/bald eagle/FL/2022 (H5N1). The experiment is described as follows: microbe, parasite or virus in culture. The class given is cell-based, influenza A(H5N1) virus. Conditions: Influenza A virus.
Experiment [2] has as its system clade 2.3.4.4b HPAI A(H5N1) viruses (B3.13 and D1.1). The experiment is described as follows: microbe, parasite or virus in culture. The note with it: for EC50: Influenza A virus, H5N1, read-out: 50% effective concentrations (EC50s), range over viruses. Format: cell-based.
The subject of experiment [3] is A/Wisconsin/53/2009 (H1N1)pdm09. The experiment is described as follows: microbe, parasite or virus in culture. The class given is cell-based, influenza A(H1N1)pdm09 virus. The note with it: Influenza A virus, H1N1, read-out: EC50 ± SD.
Experiment [4] has as its system A/California/147/2024 (CA/147, wildtype). On the set-up: species or system BALB/c mice. The note with it: mouse, in vivo; for Survival (%): po.
The subject of experiment [5] is Genotype B3.13 viruses (n = 10). The experiment in a line: microbe, parasite or virus in culture. The class given is cell-based, influenza A(H5N1) virus. Conditions: Influenza A virus, read-out: PA inhibitor EC50, median.
Another experiment concerns A/Nevada/10/2025. The experiment is described as follows: microbe, parasite or virus in culture. The note with it: Influenza A virus, read-out: PA inhibitor EC50 ± SD. Format: cell-based, influenza A(H5N1) virus.
In another experiment the test system is A/California/153/2024. The experiment in a line: microbe, parasite or virus in culture. The note with it: Influenza A virus, read-out: PA inhibitor EC50 ± SD. Format: cell-based, influenza A(H5N1) virus.
For a further experiment, the system named is A/California/151/2024. The experiment is described as follows: microbe, parasite or virus in culture. Format: cell-based, influenza A(H5N1) virus. The note with it: Influenza A virus, read-out: PA inhibitor EC50 ± SD.
Experiment [6] has as its system A/Illinois/08/2018 (H1N1)pdm09. The experiment is described as follows: microbe, parasite or virus in culture. Format: cell-based, influenza A(H1N1)pdm09 virus. The note with it: Influenza A virus, H1N1, read-out: PA inhibitor EC50 ± SD.
The test system of another experiment is A/California/152/2024. The experiment is described as follows: microbe, parasite or virus in culture. Format: cell-based, influenza A(H5N1) virus. The note with it: Influenza A virus, read-out: PA inhibitor EC50 ± SD.
A further experiment relates to A/California/148/2024. The experiment is described as follows: microbe, parasite or virus in culture. The note with it: Influenza A virus, read-out: PA inhibitor EC50 ± SD. Format: cell-based, influenza A(H5N1) virus.
In experiment [7] the test system is Genotype D1.1 viruses (n = 7). The experiment is described as follows: microbe, parasite or virus in culture. Format: cell-based, influenza A(H5N1) virus. The note with it: Influenza A virus, read-out: PA inhibitor EC50, median.
A further experiment concerns A/California/155/2024. The experiment in a line: microbe, parasite or virus in culture. The class given is cell-based, influenza A(H5N1) virus. Conditions: Influenza A virus, read-out: PA inhibitor EC50 ± SD.
The subject of experiment [8] is A/Louisiana/50/2017 (H3N2). The experiment in a line: microbe, parasite or virus in culture. Format: cell-based. The note with it: Influenza A virus, H3N2, read-out: PA inhibitor EC50 ± SD.
In another experiment the test system is A/California/147/2024. The experiment is described as follows: microbe, parasite or virus in culture. Format: cell-based, influenza A(H5N1) virus. The note with it: Influenza A virus, read-out: PA inhibitor EC50 ± SD.
The target of experiment [9] is NA of A/California/155/2024 (Influenza A virus, UniProt Q9Q0U7). Format: biochemical, influenza A(H5N1) virus. Conditions: read-out: NA inhibitor IC50 ± SD.
For another experiment, the target named is NA of A/Nevada/10/2025 (Influenza A virus, UniProt Q9Q0U7). The class given is biochemical, influenza A(H5N1) virus. Conditions: read-out: NA inhibitor IC50 ± SD.
The target of experiment [10] is NA of A/California/173/2024 (Influenza A virus, UniProt Q9Q0U7). The class given is biochemical, influenza A(H5N1) virus. The note with it: read-out: NA inhibitor IC50 ± SD.
The next experiment addresses NA of A/Iowa/24/2024 (Influenza A virus, UniProt Q9Q0U7). The class given is biochemical, influenza A(H5N1) virus. The note with it: read-out: NA inhibitor IC50 ± SD.
The next experiment concerns the target NA of A/Wyoming/01/2025 (Influenza A virus, UniProt Q9Q0U7). The class given is biochemical, influenza A(H5N1) virus. Conditions: read-out: NA inhibitor IC50 ± SD.
Experiment [11] concerns the target NA of A/Illinois/45/2019 (H1N1)pdm09 (Influenza A virus, UniProt A0A0X9QTS2). The class given is biochemical. The note with it: read-out: NA inhibitor IC50 ± SD.
In experiment [12] the target is NA of A/Illinois/08/2018 (H1N1)pdm09 (Influenza A virus, UniProt A0A0X9QTS2). The class given is biochemical. Conditions: read-out: NA inhibitor IC50 ± SD.
Experiment [13] deals with NA of Genotype D1.1 viruses (n = 7) (Influenza A virus, UniProt Q9Q0U7). Format: biochemical, influenza A(H5N1) virus. Conditions: read-out: NA inhibitor IC50, median.
The target of experiment [14] is NA of A/bald eagle/FL/2022 (H5N1) (Influenza A virus, UniProt Q9Q0U7). The class given is biochemical. The note with it: read-out: NA inhibitor IC50 ± SD.
Experiment [15] concerns the target recNA A/California/148/2024 (genotype B3.13) WT (Influenza A virus, UniProt Q9Q0U7). The class given is biochemical, influenza A(H5N1) virus.
Experiment [16] concerns the target NA of A/California/151/2024 (Influenza A virus, UniProt Q9Q0U7). The class given is biochemical, influenza A(H5N1) virus. Conditions: read-out: NA inhibitor IC50 ± SD.
The target in experiment [17] is recNA A/Washington/239/2024 (genotype D1.1) WT (Influenza A virus, UniProt Q8QPK2). The class given is biochemical, influenza A(H5N1) virus.
Experiment [18] addresses NA of A/California/153/2024 (Influenza A virus, UniProt Q9Q0U7). Format: biochemical, influenza A(H5N1) virus. Conditions: read-out: NA inhibitor IC50 ± SD.
In experiment [19] the target is NA of A/California/152/2024 (Influenza A virus, UniProt Q9Q0U7). Format: biochemical, influenza A(H5N1) virus. Conditions: read-out: NA inhibitor IC50 ± SD.
The target of experiment [20] is NA of A/California/148/2024 (Influenza A virus, UniProt Q9Q0U7). The class given is biochemical, influenza A(H5N1) virus. Conditions: read-out: NA inhibitor IC50 ± SD.
Experiment [21] has as its target NA of Genotype B3.13 viruses (n = 10) (Influenza A virus, UniProt Q9Q0U7). Format: biochemical, influenza A(H5N1) virus. The note with it: read-out: NA inhibitor IC50, median.
For experiment [22], the target named is NA of A/California/147/2024 (Influenza A virus, UniProt Q9Q0U7). Format: biochemical, influenza A(H5N1) virus. Conditions: read-out: NA inhibitor IC50 ± SD.
Experiment [23] addresses NA of A/Louisiana/50/2017 (H3N2) (Influenza A virus, UniProt A0A193ACB1). The class given is biochemical. Conditions: read-out: NA inhibitor IC50 ± SD.

Converted amounts (≈) assume the structure as drawn. Counter-ions that a name gives are not always drawn. Like-named read-outs stand apart in the source and are kept apart here. Marks after values point to notes of the source that are not given here.

In the case of `NC12CC3CC(CC(C3)C1)C2` [Amantadine, amantadine hydrochloride], the EC50 in experiment [1] (H5N1, read-out: EC50 ± SD) is 20.5 ± 4.96 ng/mL; in [2], 9.25 to 21.5 ng/mL; in experiment [3], 25.9 ± 1.51 ng/mL.

Take `COC(=O)OCOc1c2n(ccc1=O)N([C@@H]1c3ccccc3SCc3c1ccc(F)c3F)[C@@H]1COCCN1C2=O` [Baloxavir marboxil, baloxavir marboxil]: in experiment [4] (5 mg/kg), the “Mean TTD (day)” value was 11^c day; the “Wt. Loss (%), mean maximum weight loss” value worked out at 5%; the “Survival (%)” value is listed as 7/8 (87.5) %. For the same compound, in experiment [4] (15 mg/kg), the “Wt. Loss (%), mean maximum weight loss” value stood at 6% and the “Survival (%)” value was 8/8 (100) %. For the same compound, in [4] (45 mg/kg), the “Wt. Loss (%), mean maximum weight loss” value turned out to be 4% and the “Survival (%)” value is listed as 8/8 (100) %.

`O=C1c2c(O)c(=O)ccn2N([C@@H]2c3ccccc3SCc3c2ccc(F)c3F)[C@@H]2COCCN12` [Baloxavir, baloxavir acid]: the “infectious virus in any organs of treated mice” value in experiment [4] is listed as “not detected”. The “loss of initial weight” value in experiment [4] (5 mg/kg) is ≤ 6%. Further, the “Survival (%)” value in experiment [4] (5 mg/kg) amounted to 87.5%. In addition, the EC50 in experiment [5] was 0.5 nM; with A/Nevada/10/2025 it was 0.34 nM; with A/California/153/2024 it was 0.59 nM; in the experiment on A/California/151/2024, 0.72 nM; in experiment [6], 0.96 ± 0.37 nM; in experiment [1] (H5N1, read-out: PA inhibitor EC50 ± SD), 0.39 ± 0.16 nM. Besides, the EC50 in the experiment on A/California/152/2024 worked out at 0.45 nM; in the experiment with A/California/148/2024 it was 0.26 nM; in experiment [7] it was 0.34 nM; in the experiment with A/California/155/2024 it was 0.41 nM; in [8] it was 0.8 ± 0.28 nM; with A/California/147/2024, 0.4 nM. The “EC50s, in words” value in [2] is recorded as “sub-nanomolar”.

Regarding `CC(N)C12CC3CC(CC(C3)C1)C2` (stereo not drawn) [Rimantadine, rimantadine], the EC50 in experiment [1] (H5N1, read-out: EC50 ± SD) was 5.74 ± 1.31 ng/mL; in experiment [2] it was 3.14 to 6.48 ng/mL (≈ 0.0175 to 0.0361 µM); in experiment [3], 6.08 ± 0.9 ng/mL (≈ 0.0339 µM).

With `CC(=O)N[C@H]1[C@H]([C@H](O)[C@H](O)CO)OC(C(=O)O)=C[C@@H]1N=C(N)N` [Zanamivir, zanamivir], the 50% inhibitory concentration (IC50) came out at 0.16 nM in experiment [9]; 0.36 nM at NA of A/Nevada/10/2025; 0.23 nM in experiment [10]; 0.34 nM on NA of A/Iowa/24/2024; 0.46 nM at NA of A/Wyoming/01/2025.

For oseltamivir carboxylate, the IC50 is 0.28 ± 0.04 nM in experiment [11] and 0.34 ± 0.03 nM in experiment [12].

Turning to peramivir, the IC50 in [11] amounted to 0.04 ± 0.01 nM; in [13] it was 0.07 nM; in experiment [9] it was 0.08 nM; in [14], 0.08 ± 0.02 nM; in experiment [15] it was 0.08 nM; on NA of A/Nevada/10/2025, 0.07 nM. Also, the IC50 in experiment [16] amounted to 0.07 nM; in experiment [17], 0.06 nM; in experiment [12], 0.04 ± 0.01 nM; in experiment [10], 0.06 nM; on NA of A/Iowa/24/2024, 0.07 nM; in [18], 0.06 nM. The IC50 in experiment [19] is 0.08 nM; in experiment [20], 0.07 nM; in experiment [21], 0.07 nM; in [22], 0.07 nM; in experiment [23] it was 0.07 ± 0.01 nM; on NA of A/Wyoming/01/2025, 0.07 nM.
